What was measured:
Type in all cases: cell-based
iNOS = assay: RT-PCR of iNOS messenger RNA in angioendothelial cells; details: L-PCA 1.0-10.0 mM, 24 hours, RT-PCR 40 cycles
Method: (§1) Angioendothelial cells were cultured using a DMEM medium (Dulbecco-modified MEM) containing 10% fetal bovine serum (FBS). The cells were cultured in the medium for 24 hours. After 24 hours of the culture, the cells were further cultured in the medium to which L-pyrrolidonecarboxylic acid was added so as to achieve a predetermined concentration (See Table 3 given later) for 24 hours, and then the RNA was extracted. For reverse transcription of the RNA, a kit for reverse transcription (manufactured by GIBCO) was used to prepare the cDNA. The cDNA was then subjected to PCR (RT-PCR). Forty cycles of the PCR were carried out under the conditions of denaturing at 95° C. for 30 seconds, annealing at 59° C. for 60 seconds, and extension at 73° C. for 90 seconds.
(§2) As has been described above, using RT-PCR, the expressed amounts of the messenger RNA's of cNOS and iNOS were determined. In this experiment, cNOS was detected, but iNOS was not detected. […] In the table, L-PCA means L-pyrrolidonecarboxylic acid.

Angioendothelial cells = assay: Nitric oxide production in cultured angioendothelial cells (Griess method); details: for Formed amount of nitric oxide: 24 hours after addition, L-Arg, L-PCA, GA concentrations (mM) in the medium differ per Example as in Table 1, medium without L-arginine
Method: Angioendothelial cells were cultured using a DMEM medium (Dulbecco-modified MEM) containing 10% fetal bovine serum (FBS). However, phenol red and L-arginine were not added to the medium. The cells were cultured in the medium for 24 hours. After 24 hours of the culture, L-2-pyrrolidone-5-carboxylic acid and L-arginine were added to the medium, the amounts to be added being different for each Example and Comparative Example, as shown in Table 1 below. The culture was further continued for 24 hours.
Thereafter, the produced amount of the nitric oxide was determined by measuring the nitrogen dioxide in the culture supernatant. Nitrogen dioxide was measured by Griess method. The number of the cells in the culture liquid were measured and the formed amount of the nitric oxide per 10^3 cells was expressed in terms of nmol. By the way, as negative controls, the example wherein neither arginine nor pyrrolidonecarboxylic acid was contained (Comparative Example 1) and the example wherein arginine was contained singly (Comparative Example 2) were used. Moreover, as a positive control, the example wherein arginine and glycolic acid were contained (Comparative Example 3) was used.

cNOS = assay: RT-PCR of cNOS messenger RNA in angioendothelial cells; details: 24 hours; for Expressed amount of cNOS (Relative ratio): messenger RNA by RT-PCR
Method: as §1, §2

Structure (SMILES) | expressed amount of messenger RNA of iNOS (detection) (iNOS) | promoting effect on the production of nitric oxide (in words) (Angioendothelial cells; angioendothelial cells, 24 hours, comparison at 10 mM of added compound) | amount of cNOS depending on the amount of pyrrolidonecarboxylic acid added (in words) (cNOS; 1.0-10.0 mM, RT-PCR) | Expressed amount of cNOS (Relative ratio) (cNOS; L-PCA added 1.0 mM) | Expressed amount of cNOS (Relative ratio) (cNOS; L-PCA added 2.5 mM) | Expressed amount of cNOS (Relative ratio) (cNOS; L-PCA added 5.0 mM) | Expressed amount of cNOS (Relative ratio) (cNOS; L-PCA added 10.0 mM) | Formed amount of nitric oxide (Angioendothelial cells) [nmol/10^3 cells]
O=C1CC[C@@H](C(=O)O)N1 [L-PCA, L-2-pyrrolidone-5-carboxylic acid] | not detected | exhibited a promoting effect on the production of nitric oxide | tended to increase | 1.00 | 1.25 | 1.40 | 1.75 | 
N=C(N)NCCC[C@H](N)C(=O)O [Comparative Example 2, L-arginine, reference compound] |  |  |  |  |  |  |  | 1.9
O=C1CC[C@@H](C(=O)O)N1 [Example 1, L-2-pyrrolidone-5-carboxylic acid] |  |  |  |  |  |  |  | 1.4

Reference: patent US20040248967A1, “Promoter for production of nitric oxide or nitric oxide synthase, and cosmetic or pharmaceutical composition comprising the same” (AJINOMOTO CO., INC., priority 2001, published 2004)
